# US5053070A, “Pyrimidine derivatives, preparation processes thereof, herbicide containing the same, and herbicidal compositions containing the same along with other active ingredient” (Mitsui Toatsu Chemicals, Incorporated, priority 1988, dated 1991)
# Experiments:
# [1] = tested on: Sagittaria pygmaea; assay: Treatment of soil under submerged condition, pre-emergence (Test 4); assay type: in vivo; conditions: 30 g ai/a granule, 30 days later
# How it was run: (§1)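 Flooded soil pots; weeds sown/planted, rice transplanted (2 pairs, 2–3 leaf), greenhouse. Granule applied day 1, pre-emergence of weeds. Scored at 30 d for weed damage and rice injury.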
# [2] = tested on: bulrush; assay: as above; assay type: in vivo; conditions: 30 g ai/a granule, 30 days later
# How it was run: as §1
# [3] = tested on: barnyardgrass; assay: as above; assay type: in vivo; conditions: 30 g ai/a granule, 30 days later
# How it was run: as §1
# [4] = tested on: Sagittaria pygmaea; assay: Treatment of soil under submerged condition, post-emergence (Test 5); assay type: in vivo; conditions: 30 g ai/a granule, 30 days later
# How it was run: (§2)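 Post-emergence paddy test: granules of a predetermined amount of test composition go onto flooded pots when barnyardgrass has two leaves. Transplanted rice seedlings (2–3 leaf stage) share the pots with sown weeds. Damage and crop injury are rated at 30 days.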
# [5] = tested on: bulrush; assay: as above; assay type: in vivo; conditions: 30 g ai/a granule, 30 days later
# How it was run: as §2
# [6] = tested on: barnyardgrass; assay: as above; assay type: in vivo; conditions: 30 g ai/a granule, post-emergence (barnyardgrass two-leaf stage), 30 days later
# How it was run: as §2
# [7] = tested on: peanut; assay: Upland soil application test (Test 2), crop injury; assay type: in vivo; conditions: 30 g ai/a, soil spray before emergence, 30 days later
# How it was run: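 Damage was graded 30 days after treatment by comparing air-dried plant weight with that of plants in untreated pots. Test compound, given as a diluted wettable powder, had been sprayed on the soil surface one day after sowing, before any weeds emerged.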
# [8] = tested on: soybean; assay: Upland soil application test (Test 2), crop injury; assay type: in vivo; conditions: 30 g ai/a, soil spray before emergence, 30 days later
# How it was run: (§3)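 Pre-emergence soil spray, greenhouse. Weed seeds mixed through upland soil; crops sown alongside. Day 1 post-sowing: wettable-powder formulation, water-diluted, applied at 10 l/are by pressure ULV sprayer. Read at 30 days as air-dried weight vs untreated pots, scored on a graded damage scale.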
# [9] = tested on: cotton; assay: Upland soil application test (Test 2), crop injury; assay type: in vivo; conditions: 30 g ai/a, soil spray before emergence, 30 days later
# How it was run: as §3
# [10] = tested on: ALS (acetolactate syntase); assay: ALS enzyme assay (Test 1); assay type: biochemical, barnyardgrass; conditions: 1,000 ppm (0.5 mg/0.5 ml)
# How it was run: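 Partially purified ALS from dark-grown pea and barnyardgrass seedlings incubated 1 h at 30° C with pyruvate, TPP, MgCl2 and FAD. Compounds tested at 1,000 ppm (0.5 mg/0.5 ml). Acetoin formed detected colorimetrically at 525 nm via creatine/α-naphthol, relative to blank and acid-stopped controls.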
# [11] = tested on: redroot pigweed; assay: Upland soil application test (Test 2); assay type: in vivo; conditions: 30 g ai/a, soil spray before emergence, 30 days later
# How it was run: (§4)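 Weeds are grown from seed incorporated in upland field soil under greenhouse conditions and treated pre-emergence, one day after sowing, with a water-diluted wettable powder of each compound. Effect is scored after 30 days from air-dried weight relative to untreated pots.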
# [12] = tested on: large crabgrass; assay: Upland soil application test (Test 2); assay type: in vivo; conditions: 30 g ai/a, soil spray before emergence, 30 days later
# How it was run: as §4
# [13] = tested on: common lambsquarters; assay: Upland soil application test (Test 2); assay type: in vivo; conditions: 30 g ai/a, soil spray before emergence, 30 days later
# How it was run: as §4
# [14] = tested on: foxtail meadow; assay: Upland soil application test (Test 2); assay type: in vivo; conditions: 30 g ai/a, soil spray before emergence, 30 days later
# How it was run: as §4
# [15] = tested on: green foxtail; assay: Upland soil application test (Test 2); assay type: in vivo; conditions: 30 g ai/a, soil spray before emergence, 30 days later
# How it was run: as §4
# [16] = tested on: barnyardgrass; assay: Upland soil application test (Test 2); assay type: in vivo; conditions: 30 g ai/a, soil spray before emergence, 30 days later
# How it was run: as §4
# [17] = tested on: johnsongrass; assay: Upland soil application test (Test 2); assay type: in vivo; conditions: 30 g ai/a, soil spray before emergence, 30 days later
# How it was run: as §4
Inhibitory activity (%) Barnyardgrass [10],Compound,Herbicidal effects Sagittaria Pygmaea [1],Herbicidal effects Bulrush [2],Herbicidal effects Barnyardgrass [3],Herbicidal effects Sagittaria Pygmaea [4],Herbicidal effects Bulrush [5],Herbicidal effects Barnyardgrass [6],Injury Peanut [7],Injury Soybean [8],Injury Cotton [9],Herbicidal effects Redroot pigweed [11],Herbicidal effects Large crabgrass [12],Herbicidal effects Common lambsquarters [13],Herbicidal effects Foxtail meadow [14],Herbicidal effects Green foxtail [15],Herbicidal effects Barnyardgrass [16],Herbicidal effects Johnsongrass [17]
73%,"COC(=O)c1ccccc1Oc1nc(OC)cc(OC)n1 [A, reference compound]",4 (6-10 (Severe damages)),5 (0-5 (Death)),5 (0-5 (Death)),4 (6-10 (Severe damages)),4 (6-10 (Severe damages)),5 (0-5 (Death)),5 (0-5 (Death)),5 (0-5 (Death)),5 (0-5 (Death)),5 (0-5 (Death)),5 (0-5 (Death)),4 (6-10 (Severe damages)),5 (0-5 (Death)),5 (0-5 (Death)),5 (0-5 (Death)),5 (0-5 (Death))
17%,COc1cc(OC)nc(Oc2ccccc2C=NOC(C)C)n1 [compound 6],4 (6-10 (Severe damages)),4 (6-10 (Severe damages)),4 (6-10 (Severe damages)),3 (11-40 (Medium damages)),4 (6-10 (Severe damages)),4 (6-10 (Severe damages)),0 (91-100 (No damages)),0 (91-100 (No damages)),0 (91-100 (No damages)),3 (11-40 (Medium damages)),4 (6-10 (Severe damages)),4 (6-10 (Severe damages)),5 (0-5 (Death)),5 (0-5 (Death)),4 (6-10 (Severe damages)),5 (0-5 (Death))
92%,COc1cc(OC)nc(Oc2ccccc2C=NOCC=Cc2ccc(C)cc2)n1 [compound 36],5 (0-5 (Death)),4 (6-10 (Severe damages)),4 (6-10 (Severe damages)),4 (6-10 (Severe damages)),5 (0-5 (Death)),5 (0-5 (Death)),0 (91-100 (No damages)),0 (91-100 (No damages)),0 (91-100 (No damages)),4 (6-10 (Severe damages)),5 (0-5 (Death)),4 (6-10 (Severe damages)),5 (0-5 (Death)),5 (0-5 (Death)),5 (0-5 (Death)),5 (0-5 (Death))
43%,COc1cc(OC)nc(Oc2ccccc2C=NOCC=CCl)n1 [compound 11],4 (6-10 (Severe damages)),3 (11-40 (Medium damages)),4 (6-10 (Severe damages)),4 (6-10 (Severe damages)),4 (6-10 (Severe damages)),5 (0-5 (Death)),0 (91-100 (No damages)),0 (91-100 (No damages)),0 (91-100 (No damages)),5 (0-5 (Death)),5 (0-5 (Death)),4 (6-10 (Severe damages)),5 (0-5 (Death)),5 (0-5 (Death)),5 (0-5 (Death)),5 (0-5 (Death))
